Results taken from patent US20240189343A1, “TREATMENT OF VIRUS INFECTIONS” (priority 2021, published 2024).
Structures can show the parent of a compound that is named as a salt. Where two headings read alike, the source gives them in different places.

Columns and labels:
Zika virus PF13 [1] = assay: Zika virus infection of HeLa Kyoto cells, immunofluorescence infectivity readout (Example 1); assay type: cell-based; conditions: MOI 0.5, 3 and 5, 600, 200, 60 μg/ml, 1 h pre-incubation, 48 h
Procedure: (§1) Cells were detached and counted. […] 50 μl of diluted virus or media (uninfected control) was immediately added. […] After 48 h, the plates were washed with PBS, fixed for 30 mins with 4% formaldehyde, washed again with PBS, and stored in PBS at 4° C. until staining. Cells were immunostained with immunofluorescence staining. Briefly, any residual formaldehyde was quenched with 50 mM ammonium chloride, after which cells were permeabilised (0.1% Triton X100) and stained with an antibody recognizing flavivirus envelope protein (Millipore, MAB10216). The primary antibodies were detected with an Alexa-488 conjugate secondary antibody (Life Technologies, A11001), and nuclei were stained with Hoechst. […] Normalized percentages of inhibition were calculated using the following formula: […]

Zika virus PF13 [2] = assay: Zika virus infection of Vero AD cells, immunofluorescence infectivity readout (Example 1); assay type: cell-based; conditions: for inhibition of Zika virus infection: Vero AD cells, MOI 0.05 and 0.01, 600, 200, 60 μg/ml, 1 h pre-incubation, 48 h
Procedure: as §1

DENV1 (strain Hawaii) = assay: microbe, parasite or virus in culture; assay type: cell-based, dengue virus
[3] = test system: DENV2 (strain New Guinea C); assay: microbe, parasite or virus in culture; assay type: cell-based, dengue virus
DENV3 (strain H87) = assay: microbe, parasite or virus in culture; assay type: cell-based, dengue virus
DENV4 (strain H241) = assay: microbe, parasite or virus in culture; assay type: cell-based, dengue virus
[4] = test system: ZIKV African lineage (Strain MP1751); assay: microbe, parasite or virus in culture; assay type: cell-based, Zika virus
[5] = test system: ZIKV Asian lineage (PF/13); assay: microbe, parasite or virus in culture; assay type: cell-based, Zika virus
YF17D = assay: microbe, parasite or virus in culture; assay type: cell-based, yellow fever virus
Huh-7 cells = conditions: MTT, 48 h
HeLa Kyoto cells [6] = assay: MTT cytotoxicity in HeLa Kyoto cells (Example 2); conditions: 48 h
Vero AD cells = assay: MTT cytotoxicity on uninfected Vero AD cells (Example 1); conditions: 600, 200, 60 μg/ml
HeLa Kyoto cells [7] = assay: MTT cytotoxicity on uninfected HeLa Kyoto cells (Example 1); conditions: 600, 200, 60 μg/ml
[8] = test system: Huh-7 and HeLa Kyoto cells; assay: MTT cytotoxicity, Example 2, cell line not specified in the statement; conditions: highest concentration tested (10 mg/ml); no cytotoxicity at the other concentrations
Zika virus = conditions: 200 μg/ml; Vero cells; cited from earlier work
rats = conditions: cited from earlier work

dextran sulfate [listing 1 of 3 here]
inhibition of Zika virus infection (Zika virus PF13 [1]): significant and dose dependent inhibition | inhibition of Zika virus infection (Zika virus PF13 [1]; listed as dextran sulfate): inhibits Zika virus infection in human Hela cells in a concentration dependent manner | % of infection inhibition (Zika virus PF13 [2]; 200 μg/ml, Vero cells, FIG. 2A (MOI 0.05)): more than 80% | inhibition of Zika virus infection (Zika virus PF13 [2]): significant and dose dependent inhibition | inhibition of Zika virus infection (Zika virus PF13 [2]; listed as dextran sulfate): inhibits Zika virus infection in Vero cells in a concentration dependent manner | IC50 (inhibition of infection) (DENV1 (strain Hawaii)): ≤ 600 µg/mL | inhibition of virus infection into human cells (DENV1 (strain Hawaii)): > 90% | EC50 (DENV1 (strain Hawaii); 48 h): 290 µg/mL | IC50 (inhibition of infection) [3]: ≤ 600 µg/mL | EC50 ([3]; 48 h): 120 µg/mL | IC50 (inhibition of infection) (DENV3 (strain H87)): ≤ 600 µg/mL | EC50 (DENV3 (strain H87); 48 h): 30 µg/mL | IC50 (inhibition of infection) (DENV4 (strain H241)): ≤ 600 µg/mL | EC50 (DENV4 (strain H241); 48 h): 610 µg/mL | IC50 (inhibition of infection) [4]: less than 0.140 mg/ml | EC50 ([4]; 48 h): 60 µg/mL | IC50 (inhibition of infection) [5]: less than 0.140 mg/ml | inhibition of virus infection into human cells [5]: > 90% | EC50 ([5]; 48 h): 140 µg/mL | IC50 (inhibition of infection) (YF17D): less than 0.05 mg/ml | inhibition of virus infection into human cells (YF17D): > 90% | EC50 (YF17D; 48 h): 40 µg/mL | TC50 (Huh-7 cells; table line Dengue virus 1 Hawaii strain (Huh-7)): >10000 µg/mL | TC50 (Huh-7 cells; table line Dengue virus 2 New Guinea C strain (Huh-7)): >10000 µg/mL | TC50 (Huh-7 cells; table line Dengue virus 3 H87 strain (Huh-7)): >10000 µg/mL | TC50 (Huh-7 cells; table line Dengue virus 4 H241 strain (Huh-7)): >10000 µg/mL | TC50 (Huh-7 cells; table line Yellow Fever virus 17D strain (Huh-7)): >10000 µg/mL | TC50 (HeLa Kyoto cells [6]; table line Zika virus African strain (HeLa Kyoto)): >10000 µg/mL | TC50 (HeLa Kyoto cells [6]; table line Zika virus Asian strain (HeLa Kyoto)): >10000 µg/mL | cytotoxicity (MTT) (Vero AD cells): No significant cytotoxicity | cytotoxicity (MTT) (HeLa Kyoto cells [7]): No significant cytotoxicity | cytotoxicity (maximal) [8]: ≤ 16%

CC[C@@]1([C@@H]2O[C@@H]([C@H]3O[C@@](O)(CO)[C@H](C)C[C@@H]3C)C[C@@H]2C)CC[C@H]([C@]2(C)CC[C@]3(C[C@H](O)[C@@H](C)[C@@H]([C@@H](C)[C@@H](OC)[C@H](C)C(=O)O)O3)O2)O1 [Monensin, Monensin sodium salt, reference compound]
EC50 (DENV1 (strain Hawaii); Dengue virus, DENV1, Huh-7): 1.19 nM | EC50 ([3]; Dengue virus, DENV2, Huh-7): 0.88 nM | EC50 (DENV3 (strain H87); Dengue virus, DENV3, Huh-7): 0.69 nM | EC50 (DENV4 (strain H241); Dengue virus, DENV4, Huh-7): 2.61 nM | EC50 ([4]; Zika virus, HeLa Kyoto): 70.7 nM | EC50 ([5]; Zika virus, HeLa Kyoto): 68.1 nM | EC50 (YF17D; Yellow fever virus, Huh-7): 6.54 nM

dextran sulfate [listing 2 of 3 here]
% infection inhibition (Zika virus): about 60%

dextran sulfate [listing 3 of 3 here]
toxicity to rats (rats): highly toxic
